Where “and” joins values, the source holds several entries; their conditions need not be identical. Identical values can stand only once.
Assays:
[1] = biological target: T1, AChE (from human erythrocyte) (Homo sapiens, UniProt P22303); test: biochemical; conditions: for AChE IR (%) inhibition ratio: at 50 μM; for IC50: mean ± SD of three separate experiments
T1 construct: AChE (EC 3.1.1.8, from human erythrocyte); purchased Sigma-Aldrich (St. Louis, MO, USA); host or cells: human erythrocyte
Procedure: (§1) BChE (EC 3.1.1.8, from human serum), AChE (EC […]), butyrylthiocholine (BUC) iodide, and acetylthiocholine (ATC) iodide were purchased from Sigma-Aldrich (St. Louis, MO, USA). Enzyme was dissolved and pre-prepared at 2.0 U/mL. 10 μL of enzyme, 20 μL of 0.01 M 5,5′-dithiobis(2-nitrobenzoic acid), 10 μL of tested compound, and 40 μL of PBS were pre-incubated together for 5 min. Io initiate the reaction, 20 μL of 0.01 M BUC or ATC was added. The activity was determined by measuring the increase in absorbance at 410 nm at 37 °C in 2 min intervals using Tecan Spark multimode microplate reader (Mannedorf, Switzerland). The percentage of inhibition (I) was calculated according to the formula: I = (Ac − Ai)/Ac × 100%, with Ai and Ac representing the change in the absorbance in the presence of an inhibitor and without an inhibitor, respectively.

[2] = biological target: T2, BChE (EC 3.1.1.8, from human serum) (Homo sapiens, UniProt P06276); test: biochemical; conditions: for BChE IR (%) inhibition ratio: at 50 μM; for IC50: mean ± SD of three separate experiments
T2 construct: BChE (EC 3.1.1.8, from human serum); purchased Sigma-Aldrich (St. Louis, MO, USA); host or cells: human serum
T2 sequence (P06276 29-602): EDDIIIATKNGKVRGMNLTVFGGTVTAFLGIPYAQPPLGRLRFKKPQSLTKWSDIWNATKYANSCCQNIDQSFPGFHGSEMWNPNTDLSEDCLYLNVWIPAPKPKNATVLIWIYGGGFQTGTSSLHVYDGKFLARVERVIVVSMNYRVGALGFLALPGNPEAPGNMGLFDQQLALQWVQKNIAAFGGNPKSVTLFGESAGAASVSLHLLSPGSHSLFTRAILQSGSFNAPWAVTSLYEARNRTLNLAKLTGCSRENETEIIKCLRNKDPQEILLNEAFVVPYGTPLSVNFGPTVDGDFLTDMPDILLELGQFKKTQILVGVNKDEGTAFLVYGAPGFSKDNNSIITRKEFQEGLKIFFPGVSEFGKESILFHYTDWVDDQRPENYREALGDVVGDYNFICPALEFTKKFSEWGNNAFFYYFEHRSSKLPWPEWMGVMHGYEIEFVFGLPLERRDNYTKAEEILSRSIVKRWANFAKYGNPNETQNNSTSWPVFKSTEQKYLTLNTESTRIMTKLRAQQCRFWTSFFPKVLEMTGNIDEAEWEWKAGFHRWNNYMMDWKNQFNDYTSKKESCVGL
Procedure: as §1

[3] = tested on: Aβ1-42-induced toxicity in SH-SY5Y cells; test: Protective activity against Aβ1-42-induced toxicity, MTT method; assay type: cell-based; conditions: compound at 10 μM, 10 μM Aβ1-42 for 24h
Procedure: Based on this observation, compound 23 might be a more promising protective agent against Aβ1-42-induced toxicity on the SH-SY5Y cell model.
The MTT method was used to test the cytotoxicity and neuroprotective activity evaluation of compounds. The detailed procedure was included in Supplementary Materials. […]
formazan crystals. The formazan dye product was measured by the absorbance at 490 nm on a Tecan Spark multimode microplate reader (Tecan, Switzerland).
Neuroprotective activity assay
SH-SY5Y cells were maintained at 37 °C in a humidified atmosphere containing 5% CO2. Cells were seeded into multi-well plates at a density of 2~2.5 × 10^5 cells/mL in DMEM medium, supplemented with 10% heat-inactivated bovine calf serum (Gibco, South America Origin). Experiments were carried out in 24 h after cells were seeded.
Aβ1–42 were stored at 4 °C until 0.1 mM stock solutions were prepared in phosphate bufer saline (PBS) on the day of application to cultures. Th e compounds were first dissolved with DMSO and then diluted with DMEM medium. After pretreatment with the compounds for 2 h, Aβ1–42 were added to SH-SY5Y cell cultures in 24 h. Assays for cell viability were performed in 24 h after cultured in fresh medium .

T1 sequence (P22303 other isoform, or with tags, fused parts or gaps): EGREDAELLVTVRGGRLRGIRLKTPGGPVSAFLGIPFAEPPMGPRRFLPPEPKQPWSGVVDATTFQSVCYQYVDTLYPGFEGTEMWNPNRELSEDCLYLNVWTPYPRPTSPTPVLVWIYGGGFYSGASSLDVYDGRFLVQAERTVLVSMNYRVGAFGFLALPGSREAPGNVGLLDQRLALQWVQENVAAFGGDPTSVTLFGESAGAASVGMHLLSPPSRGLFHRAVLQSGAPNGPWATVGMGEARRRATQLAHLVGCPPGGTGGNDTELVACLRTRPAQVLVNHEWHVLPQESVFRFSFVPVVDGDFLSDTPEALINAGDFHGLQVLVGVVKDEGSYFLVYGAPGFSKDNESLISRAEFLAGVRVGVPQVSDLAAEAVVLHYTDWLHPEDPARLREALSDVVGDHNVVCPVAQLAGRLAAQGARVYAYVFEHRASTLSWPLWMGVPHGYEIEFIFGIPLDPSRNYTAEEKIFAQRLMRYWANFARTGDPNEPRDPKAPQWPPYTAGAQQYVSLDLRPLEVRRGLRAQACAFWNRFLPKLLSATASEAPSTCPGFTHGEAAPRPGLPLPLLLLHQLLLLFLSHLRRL

CCN(CC)CCNC(=O)c1ccc(CN2CCc3ccccc3C2)cc1 [Compound 1, N-(2-(diethylamino)ethyl)-4-((3,4-dihydroisoquinolin-2(1H)-yl)methyl)benzamide]
AChE IR (%) inhibition ratio [1]: 26.6% | IC50 [1]: > 50 µM | BChE IR (%) inhibition ratio [2]: 68.4% | IC50 [2]: 17.9 µM

CC(C)N(CCNC(=O)c1ccc(CN2CCc3ccccc3C2)cc1)C(C)C [Compound 2, 4-((3,4-dihydroisoquinolin-2(1H)-yl)methyl)-N-(2-(diisopropylamino)ethyl)benzamide]
AChE IR (%) inhibition ratio [1]: 56.1% | IC50 [1]: 21.5 ± 0.98 µM | BChE IR (%) inhibition ratio [2]: 76.4% | IC50 [2]: 9.98 ± 0.89 µM

CN(C)CCNC(=O)c1ccc(CN2CCc3ccccc3C2)cc1 [Compound 3, 4-((3,4-dihydroisoquinolin-2(1H)-yl)methyl)-N-(2-(dimethylamino)ethyl)benzamide]
AChE IR (%) inhibition ratio [1]: 11.4% | BChE IR (%) inhibition ratio [2]: 36.9%

CCNCCNC(=O)c1ccc(CN2CCc3ccccc3C2)cc1 [Compound 4, 4-((3,4-dihydroisoquinolin-2(1H)-yl)methyl)-N-(2-(ethylamino)ethyl)benzamide]
AChE IR (%) inhibition ratio [1]: 8.8% | BChE IR (%) inhibition ratio [2]: 27.2%

COC(CNC(=O)c1ccc(CN2CCc3ccccc3C2)cc1)OC [Compound 5, 4-((3,4-dihydroisoquinolin-2(1H)-yl)methyl)-N-(2,2-dimethoxyethyl)benzamide]
AChE IR (%) inhibition ratio [1]: 2.7% | BChE IR (%) inhibition ratio [2]: 56.6% | IC50 [2]: 38.1 ± 1.68 µM

O=C(NCCN1CCOCC1)c1ccc(CN2CCc3ccccc3C2)cc1 [Compound 6, 4-((3,4-dihydroisoquinolin-2(1H)-yl)methyl)-N-(2-morpholinoethyl)benzamide]
AChE IR (%) inhibition ratio [1]: 13.4% | BChE IR (%) inhibition ratio [2]: 19.1%

O=C(NCCN1CCCC1)c1ccc(CN2CCc3ccccc3C2)cc1 [Compound 7, 4-((3,4-dihydroisoquinolin-2(1H)-yl)methyl)-N-(2-(pyrrolidin-1-yl)ethyl)benzamide]
AChE IR (%) inhibition ratio [1]: 4.4% | IC50 [2]: 15.2 ± 2.33 µM

CCN1CCCC1CNC(=O)c1ccc(CN2CCc3ccccc3C2)cc1 (stereo not shown) [Compound 8, 4-((3,4-dihydroisoquinolin-2(1H)-yl)methyl)-N-((1-ethylpyrrolidin-2-yl)methyl)benzamide]
AChE IR (%) inhibition ratio [1]: 13.3% | BChE IR (%) inhibition ratio [2]: 63.0% | IC50 [2]: 25 ± 1.27 µM

O=C(c1ccc(CN2CCc3ccccc3C2)cc1)N1CCOCC1 [Compound 10, (4-((3,4-dihydroisoquinolin-2(1H)-yl)methyl)phenyl)(morpholino)methanone]
AChE IR (%) inhibition ratio [1]: 3.4% | BChE IR (%) inhibition ratio [2]: 11.2%

O=C(c1ccc(CN2CCc3cc(Br)ccc3C2)cc1)N1CCCC1 [Compound 11, (4-((6-bromo-3,4-dihydroisoquinolin-2(1H)-yl)methyl)phenyl)(pyrrolidin-1-yl)methanone]
IC50 [1]: 30.6 ± 1.82 µM | IC50 [2]: 8.38 ± 0.65 µM

O=C(c1ccc(CN2CCc3ccc(Br)cc3C2)cc1)N1CCCC1 [Compound 12, (4-((7-bromo-3,4-dihydroisoquinolin-2(1H)-yl)methyl)phenyl)(pyrrolidin-1-yl)methanone]
IC50 [1]: > 50 µM | IC50 [2]: 39.4 ± 2.25 µM

COc1ccc2c(c1)CCN(Cc1ccc(C(=O)N3CCCC3)cc1)C2 [Compound 13, (4-((6-methoxy-3,4-dihydroisoquinolin-2(1H)-yl)methyl)phenyl)(pyrrolidin-1-yl)methanone]
IC50 [1]: 12.1 ± 0.9 µM | IC50 [2]: 12.6 ± 0.88 µM

COc1cc2c(cc1OC)CN(Cc1ccc(C(=O)N3CCCC3)cc1)CC2 [Compound 14, (4-((6,7-dimethoxy-3,4-dihydroisoquinolin-2(1H)-yl)methyl)phenyl)(pyrrolidin-1-yl)methanone]
IC50 [1]: 18.2 ± 0.86 µM

O=C(Nc1ccccc1)c1ccc(CN2CCc3ccccc3C2)cc1 [Compound 15, 4-((3,4-dihydroisoquinolin-2(1H)-yl)methyl)-N-phenylbenzamide]
AChE IR (%) inhibition ratio [1]: 8% | BChE IR (%) inhibition ratio [2]: 23.7%

O=C(Nc1ccccc1F)c1ccc(CN2CCc3ccccc3C2)cc1 [Compound 16, 4-((3,4-dihydroisoquinolin-2(1H)-yl)methyl)-N-(2-fluorophenyl)benzamide]
AChE IR (%) inhibition ratio [1]: 2.1% | BChE IR (%) inhibition ratio [2]: 74.7% | IC50 [2]: 6.9 µM and 6.93 µM

O=C(Nc1cccc(F)c1)c1ccc(CN2CCc3ccccc3C2)cc1 [Compound 17, 4-((3,4-dihydroisoquinolin-2(1H)-yl)methyl)-N-(3-fluorophenyl)benzamide]
AChE IR (%) inhibition ratio [1]: 7.7% | BChE IR (%) inhibition ratio [2]: 10.0%

O=C(Nc1ccc(F)cc1)c1ccc(CN2CCc3ccccc3C2)cc1 [Compound 18, 4-((3,4-dihydroisoquinolin-2(1H)-yl)methyl)-N-(4-fluorophenyl)benzamide]
AChE IR (%) inhibition ratio [1]: 7.0% | BChE IR (%) inhibition ratio [2]: 14.1%

O=C(NCc1ccc(F)cc1)c1ccc(CN2CCc3ccccc3C2)cc1 [Compound 19, 4-((3,4-dihydroisoquinolin-2(1H)-yl)methyl)-N-(4-fluorobenzyl)benzamide]
AChE IR (%) inhibition ratio [1]: 2.3% | BChE IR (%) inhibition ratio [2]: 83.9% | IC50 [2]: 14.8 ± 0.58 µM

O=C(NNc1ccc(F)cc1)c1ccc(CN2CCc3ccccc3C2)cc1 [Compound 20, 4-((3,4-dihydroisoquinolin-2(1H)-yl)methyl)-N2019-(4-fluorophenyl)benzohydrazide]
AChE IR (%) inhibition ratio [1]: 21.8% | BChE IR (%) inhibition ratio [2]: 13.2%

O=C(Nc1ccc(Cl)cc1F)c1ccc(CN2CCc3ccccc3C2)cc1 [Compound 21, N-(4-chloro-2-fluorophenyl)-4-((3,4-dihydroisoquinolin-2(1H)-yl)methyl)benzamide]
AChE IR (%) inhibition ratio [1]: 5% | BChE IR (%) inhibition ratio [2]: 38.6%

O=C(Nc1ccc(Br)cc1F)c1ccc(CN2CCc3ccccc3C2)cc1 [Compound 22, N-(4-bromo-2-fluorophenyl)-4-((3,4-dihydroisoquinolin-2(1H)-yl)methyl)benzamide]
AChE IR (%) inhibition ratio [1]: 28.3% | BChE IR (%) inhibition ratio [2]: 15.4%

O=C(Nc1cccc(Br)c1)c1ccc(CN2CCc3ccccc3C2)cc1 [Compound 24, N-(3-bromophenyl)-4-((3,4-dihydroisoquinolin-2(1H)-yl)methyl)benzamide]
AChE IR (%) inhibition ratio [1]: 21.6% | BChE IR (%) inhibition ratio [2]: 35.1%

O=C(Nc1ccc(Br)cc1)c1ccc(CN2CCc3ccccc3C2)cc1 [Compound 25, N-(4-bromophenyl)-4-((3,4-dihydroisoquinolin-2(1H)-yl)methyl)benzamide]
AChE IR (%) inhibition ratio [1]: 40.6% | BChE IR (%) inhibition ratio [2]: 8.1%

O=C(Oc1ccccc1Br)c1ccc(CN2CCc3ccccc3C2)cc1 [Compound 26, 2-bromophenyl 4-((3,4-dihydroisoquinolin-2(1H)-yl)methyl)benzoate]
AChE IR (%) inhibition ratio [1]: 26.2% | BChE IR (%) inhibition ratio [2]: 11%

O=C(Sc1ccccc1Br)c1ccc(CN2CCc3ccccc3C2)cc1 [Compound 27, S-(2-bromophenyl) 4-((3,4-dihydroisoquinolin-2(1H)-yl)methyl)benzothioate]
AChE IR (%) inhibition ratio [1]: 22.8% | BChE IR (%) inhibition ratio [2]: 1.5%

O=C(NCCc1c[nH]c2ccccc12)c1ccc(CN2CCc3ccccc3C2)cc1 [Compound 28, N-(2-(1H-indol-3-yl)ethyl)-4-((3,4-dihydroisoquinolin-2(1H)-yl)methyl)benzamide]
AChE IR (%) inhibition ratio [1]: 8.4% | BChE IR (%) inhibition ratio [2]: 1.3%

Cc1ccc2[nH]cc(CCNC(=O)c3ccc(CN4CCc5ccccc5C4)cc3)c2c1 [Compound 29, 4-((3,4-dihydroisoquinolin-2(1H)-yl)methyl)-N-(2-(5-methyl-1H-indol-3-yl)ethyl)benzamide]
AChE IR (%) inhibition ratio [1]: 4.6% | BChE IR (%) inhibition ratio [2]: 6.5%

COc1ccc2[nH]cc(CCNC(=O)c3ccc(CN4CCc5ccccc5C4)cc3)c2c1 [Compound 30, 4-((3,4-dihydroisoquinolin-2(1H)-yl)methyl)-N-(2-(5-methoxy-1H-indol-3-yl)ethyl)benzamide]
AChE IR (%) inhibition ratio [1]: 8.3% | BChE IR (%) inhibition ratio [2]: 1.1%

O=C(O[C@@H]1Cc2c(O)cc(O)cc2O[C@@H]1c1cc(O)c(O)c(O)c1)c1cc(O)c(O)c(O)c1 [EGCG, epigallocatechin gallate, reference compound]
cell viability of Aβ1-42-treated SH-SY5Y cells [3]: 87.18 ± 1.29%

Reference: publication PMC6680840 (Molecules, 2019)
